Test results published in article PMC9861180, “Nintedanib-αVβ6 Integrin Ligand Conjugates Reduce TGFβ-Induced EMT in Human Non-Small Cell Lung Cancer” (International Journal of Molecular Sciences, 2023).
“Also recorded” adds a separate entry of the source.

Columns and labels:
TGFβ-treated A549 cells = experiment: cells; assay type: cell-based, human; conditions: 24 h
Procedure: A549 cell viability was assessed using MTT (3-(4,5-dimethylthiazol-2-yl)-2,5-diphenyltetrazolium bromide) tetrazolium reduction assay (M5655, Sigma Aldrich, Milan, Italy), as described in [58]. Briefly, A549 cells were treated for 48 h in complete medium with TGFβ (10 ng/mL). Next, cells (2.5 × 10^3) were plated into 96-multiwell plates in 100 µL of complete medium. After adhesion, the compounds were added to the medium at different concentrations. After 24 h exposure, the medium was replaced with 100 µL MTT reagent in each well, and plates were incubated at 37 °C. After 2 h, MTT was removed, and the blue MTT–formazan product was solubilized with dimethyl sulfoxide (DMSO, Sigma Aldrich). The absorbance of the formazan solution was read at 595 nm using the microplate reader (Bio-Rad, Milan, Italy). Inhibition of cell proliferation was calculated by the IC50 calculator (AAT Bioquest, Inc., Pleasanton, CA, USA, https://www.aatbio.com/ (accessed on 1 July 2022)).

human recombinant VEGFR2 = molecular target: T1, human recombinant VEGFR2 (Homo sapiens, UniProt P35968); experiment: VEGFR2 tyrosine kinase inhibition, radiometric (Eurofins); assay type: biochemical; conditions: nine-point concentration-response curve, radiometric detection; read-out: IC50, inhibition of VEGFR2 phosphorylation
T1 construct: purchased Eurofins (Cerep laboratories; KinaseProfiler, IC50 Profiler service)
Procedure: Inhibition of receptor phosphorylation was measured by a radiometric detection method. IC50 values were determined from a nine-point concentration−response curve generated using the standard assay conditions for the target.

αvβ3 integrin [1] = experiment: Expression of αvβ3 integrin by cytofluorimetric analysis; assay type: cell-based, human
Procedure: (§1) Expression of αvβ6 integrins was determined by cytofluorimetric analysis. Human NSCLC A549 and H1975 cells, either grown in standard conditions or exposed to TGFβ treatment, were detached from the substrate using Accutase® to minimize the exposure of the extracellular membrane proteins to the enzymatic activity of trypsin. The cells were then incubated with primary antibodies, in the absence of membrane permeabilization. The cytofluorimetric procedures ensured quantification of the αvβ6 integrin receptor protruding outside the cells. […] These percentages increased to 66% of the parental population in A549 cells and to 55% in H1975, when the cells were exposed to TGFβ for 48 h (Figure 2B,D). […] In addition, we evaluated αvβ6 integrin expression on human melanoma cells (SSM2c, Figure S4A) and murine fibroblasts (L929, Figure S5A), whereas expression of the αvβ3 integrin receptor in these cells had been previously evaluated.
A549, L929, and K562 cells were allowed to grow in standard conditions; in several experiments, A549 cells were grown in the presence or in the absence of recombinant human TGFβ (10 ng/mL) (#11343160 Immunotools Friesoythe Germany). […] After extensive washes using cytofluorimetric buffer, cells were analyzed using a BD FACSCanto™ flow cytometry system (BD Bioscience, Eysins, Switzerland). […]

αvβ6 integrin receptor = experiment: Expression of αvβ6 integrin by cytofluorimetric analysis; assay type: cell-based, human
Procedure: as §1
A549, L929, and K562 cells were allowed to grow in standard conditions; in several experiments, A549 cells were grown in the presence or in the absence of recombinant human TGFβ (10 ng/mL) (#11343160 Immunotools Friesoythe Germany). […] After extensive washes using cytofluorimetric buffer, cells were analyzed using a BD FACSCanto™ flow cytometry system (BD Bioscience, Eysins, Switzerland).

H1975 cells = experiment: Inhibition of H1975 cell adhesion to fibronectin; assay type: cell-based, human; conditions: untreated and TGFβ-treated, increasing concentrations
Procedure: (§2) To verify whether conjugates 1–3 were able to bind the integrin receptor efficiently and compete with the receptor’s natural ligand (fibronectin) for the binding site, we performed an inhibition of adhesion assay. In this assay, the biological effects of the three conjugated compounds were compared to the inhibitory ability of the unconjugated ligand 4. Inhibition of A549 and H1975 cell adhesion to fibronectin was determined in both untreated and TGFβ-treated cells. The assay was carried out with increasing concentrations of compounds 1–3 and unconjugated cyclic peptidomimetic 4. […]
(§3) Figure 3 Inhibition of A549 (A,B) and H1975 (C,D) cell adhesion to FN (10 μg/mL) in the presence of compounds 1–3, or c(AmpLRGDL) 4 (2 h). […] The inhibitory activity was calculated as the percentage of cell adhesion to FN in untreated cells and was expressed as mean ± SEM. […]
(§4) 96-well plates were coated with fibronectin (10 µg/mL) (sc-29011 SantaCruz, D.B.A., Milano, Italia) by overnight incubation at 4 °C. […] Next, A549 cells were washed by centrifugation with PBS, counted, and suspended in serum-free medium at 0.6 × 10^6 cells/mL. […] After 2 h of incubation at […], cells were permeabilized with 50 µL of DMSO (C6164, Sigma-Aldrich Merk Life Science S.r.l. Milano, Italy) and plates were examined at 550 nm in a counter BioRad (550 Microplate Reader, BioRad, Milano, Italy). […]

A549 cells [2] = experiment: Inhibition of A549 cell adhesion to vitronectin; assay type: cell-based, human; conditions: A549 cells and TGFβ-treated A549 cells
Procedure: The highest levels of inhibition in A549 cells were registered with compounds 1 and 2, which were able to inhibit more than 50% adhesion in TGFβ-treated cells even at concentrations of 1 μM, a percentage that raised to 70% when these compounds were tested at 5 μM. […] Moreover, high levels of inhibition were registered in H1975 cells with compounds 1–3 that reached a minimum of 50% inhibition of adhesion in TGFβ-treated cells at 1 μM. These percentages increased to 70% when the compounds were tested at 5 μM. […] As already mentioned, the expression of αvβ3 integrins in A549 cells was reduced after exposure to TGFβ. Since αvβ3 integrins are one of the most avid receptors for vitronectin (VN), we investigated whether compounds 1–4 were able to inhibit A549 cell adhesion to VN. We discovered that, in A549 cells and in TGFβ-treated A549 cells, cell adhesion to vitronectin was not inhibited by the three different conjugated compounds nor by compound 4 (Figure S2E); this lack of efficacy is probably due to the lower binding affinity of the integrin ligand towards the αvβ3 integrin receptors.
2. […]
Figure S2. […] The inhibitory activity was calculated as the percentage of cell adhesion to VN in untreated cells and was expressed as means ± SEM. […]

[3] = test system: tumor spheroids of TGFβ-treated A549 cells and murine L929 fibroblasts; experiment: Tumor spheroid 2D flat surface migration and growth; assay type: cell-based, human; conditions: 5 µM, fibronectin-coated flat surface
Procedure: Heterogeneous spheroids of tumor cells and fibroblasts were also used to evaluate the ability of the compounds to inhibit 2D flat surface migration and growth once the spheroids were allowed to attach to a suitable surface (Figure 8).
Hanging drop tumor spheroids were allowed to spread on a 2D fibronectin-coated flat surface. […] Data are representative of three independent experiments (n = 6) and expressed as means ± SEM. * p < 0.05 vs. untreated spheroids.
A549 cells, exposed for 48 h to TGFβ treatment, were mixed in a 1:1 ratio with murine L929 fibroblast (40,000/mL) in order to obtain 3D multicellular tumor spheroids (MCTS) resembling cellular heterogenicity of the neoplastic lesion. […] After one week, multicellular tumor spheroids were completely formed. Tumor spheroids were next used in different experimental procedures. We evaluated 2D flat surface inhibition of migration and growth, and the inhibition of 3D growth. For 2D flat surface migration and growth inhibition assays, the spheroids were placed on regular culture dishes and allowed to spread and grow in complete medium containing different compounds at 5 µM concentration. The areas of cell spreading were used as parameters for migration (red lines), while the areas of the spheroid core were used as parameters for 2D growth (yellow lines). For 3D growth inhibition, spheroids were placed on 2% agarose coated dishes in complete medium containing the different treatments at 5 µM concentration. Spheroid areas were analysed and compared to time 0 and used to evaluate the inhibition of 3D growth (yellow lines). Images of all spheroids were taken daily using the EVOS XL Core Imaging System with a 10x objective (Thermofisher Scientific, Waltham, MA, USA ). All images were analysed using the open-source software ImageJ (1.52a, National Institutes of Health, Bethesda, MD, USA).

[4] = test system: α-smooth muscle actin (α-SMA); experiment: α-smooth muscle actin protein expression, Western blot; assay type: cell-based, human; conditions: TGFβ-treated A549 cells, 5 μM, 24 h
Procedure: Data are expressed as means ± SEM of fold increment compared to untreated cells normalized to α-tubulin.
Western blot analysis was performed on whole-cell lysates of A549 cells, exposed for 48 h to TGFβ treatment and subsequently exposed to 5 µM concentrations of different compounds. After 24 h incubation, media were rapidly removed and cell monolayers were lysed as previously described in RIPA lysis buffer, with the addition of proteinase inhibitor cocktail (04693124001 Roche Merk Life Science S.r.l., Milano, Italy) for 30 min in ice [35]. Protein content was quantified, and forty-fifty micrograms of total proteins were separated on Bolt® Bis-Tris Plus gels 4–12% (Life Technologies, Monza, Italy). Fractionated proteins were transferred from the gel to a PVDF nitrocellulose membrane using iBlot 2 system (Life Technologies, Monza, Italy). Membranes were blocked for 5 min at room temperature, with EveryBlot Biorad blocking buffer (Life Technologies, Monza, Italy). […] The protein bands were analyzed by the Odyssey Infrared Imaging System (Lycor Bioscience) using software for protein quantification. […]

[5] = test system: tumor spheroids of TGFβ-treated A549 cells and murine L929 fibroblasts; experiment: Inhibition of 3D tumor spheroid growth; assay type: cell-based, human; conditions: 5 µM, 72 h, vs untreated spheroids
Procedure: Heterogeneous spheroids of tumor cells and fibroblasts were generated using the hanging drop technique to mimic the complex three-dimensional environment of tumor tissues. […] Next, the fluorescence intensities associated with each cell population were analyzed as previously described.
Hanging drop tumor spheroids were prepared starting from 1:1 mixed cell population (1000 cells/25μL) of TGF𝛽-treated A549 cells and murine L929 fibroblasts. […] (C) Quantitative analysis of inhibition of 3D growth and (D) 3D spheroid internalization of the compounds after 72 h exposure. Data are representative of three independent experiments (n = 6) and expressed as means ± SEM. * p < 0.05 vs. untreated spheroids.
A549 cells, exposed for 48 h to TGFβ treatment, were mixed in a 1:1 ratio with murine L929 fibroblast (40,000/mL) in order to obtain 3D multicellular tumor spheroids (MCTS) resembling cellular heterogenicity of the neoplastic lesion. […] After one week, multicellular tumor spheroids were completely formed. Tumor spheroids were next used in different experimental procedures. […] For 3D growth inhibition, spheroids were placed on 2% agarose coated dishes in complete medium containing the different treatments at 5 µM concentration. Spheroid areas were analysed and compared to time 0 and used to evaluate the inhibition of 3D growth (yellow lines). Images of all spheroids were taken daily using the EVOS XL Core Imaging System with a 10x objective (Thermofisher Scientific, Waltham, MA, USA ). All images were analysed using the open-source software ImageJ (1.52a, National Institutes of Health, Bethesda, MD, USA).

αvβ6 integrin = test system: αvβ6 integrin; design: method as in PMID 32634263; conditions: cited from earlier work
αvβ3 integrin [6] = test system: αvβ3 integrin; design: method as in PMID 32634263; conditions: isolated integrin; cited from earlier work
A549 cells [7] = experiment: Inhibition of A549 cell adhesion to fibronectin; assay type: cell-based, human
Procedure: as §2, §3, §4

T1 sequence (P35968 20-1356): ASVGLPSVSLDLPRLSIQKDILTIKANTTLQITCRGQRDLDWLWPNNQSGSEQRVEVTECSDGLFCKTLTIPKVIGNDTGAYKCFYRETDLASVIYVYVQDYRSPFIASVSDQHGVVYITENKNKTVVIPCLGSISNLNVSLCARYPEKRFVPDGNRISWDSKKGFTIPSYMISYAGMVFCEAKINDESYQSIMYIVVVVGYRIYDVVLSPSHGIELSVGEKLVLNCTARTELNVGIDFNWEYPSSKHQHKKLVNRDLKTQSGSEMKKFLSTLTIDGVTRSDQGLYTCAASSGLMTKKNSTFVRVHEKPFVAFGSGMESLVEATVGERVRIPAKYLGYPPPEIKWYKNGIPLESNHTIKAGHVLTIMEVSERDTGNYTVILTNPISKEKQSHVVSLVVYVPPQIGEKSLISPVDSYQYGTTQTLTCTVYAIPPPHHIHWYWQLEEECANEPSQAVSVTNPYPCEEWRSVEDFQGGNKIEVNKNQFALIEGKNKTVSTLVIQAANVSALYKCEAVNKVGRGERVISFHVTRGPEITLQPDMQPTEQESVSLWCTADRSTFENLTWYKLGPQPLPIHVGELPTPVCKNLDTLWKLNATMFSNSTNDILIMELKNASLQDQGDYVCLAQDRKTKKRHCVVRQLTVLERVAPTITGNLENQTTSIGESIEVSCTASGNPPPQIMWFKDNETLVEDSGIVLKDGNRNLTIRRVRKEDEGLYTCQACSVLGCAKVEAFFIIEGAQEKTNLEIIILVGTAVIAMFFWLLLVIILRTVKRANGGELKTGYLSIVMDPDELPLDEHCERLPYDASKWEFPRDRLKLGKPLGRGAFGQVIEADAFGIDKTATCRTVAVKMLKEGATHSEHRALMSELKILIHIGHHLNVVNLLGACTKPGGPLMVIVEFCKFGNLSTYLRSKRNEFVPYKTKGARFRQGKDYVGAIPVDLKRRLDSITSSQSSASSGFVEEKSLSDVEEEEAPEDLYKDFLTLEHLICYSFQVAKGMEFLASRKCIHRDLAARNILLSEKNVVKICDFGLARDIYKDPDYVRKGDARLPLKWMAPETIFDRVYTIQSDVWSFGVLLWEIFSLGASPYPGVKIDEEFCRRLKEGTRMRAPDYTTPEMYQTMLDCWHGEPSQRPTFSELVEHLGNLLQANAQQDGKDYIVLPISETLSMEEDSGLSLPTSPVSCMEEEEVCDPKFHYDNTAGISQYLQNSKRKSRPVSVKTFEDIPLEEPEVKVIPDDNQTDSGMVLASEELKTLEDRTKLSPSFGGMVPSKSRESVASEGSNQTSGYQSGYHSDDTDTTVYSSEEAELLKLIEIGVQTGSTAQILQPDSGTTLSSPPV

COC(=O)c1ccc2c(c1)NC(=O)/C2=C(\Nc1ccc(N(C)C(=O)CN2CCN(CCOCCOCCOCc3cn(CCCCCC(=O)N4C[C@@H]5C[C@H]4C(=O)N[C@@H](CC(C)C)C(=O)N[C@@H](CCCNC(=N)N)C(=O)NCC(=O)N[C@@H](CC(=O)O)C(=O)N[C@@H](CC(C)C)C(=O)N5)nn3)CC2)cc1)c1ccccc1 [compound 2]
IC50 (TGFβ-treated A549 cells): 10100 nM

COC(=O)c1ccc2c(c1)NC(=O)/C2=C(\Nc1ccc(N(C)C(=O)CN2CCN(CCCCNC(=O)CCc3cn(CCCCCC(=O)N4C[C@@H]5C[C@H]4C(=O)N[C@@H](CC(C)C)C(=O)N[C@@H](CCCNC(=N)N)C(=O)NCC(=O)N[C@@H](CC(=O)O)C(=O)N[C@@H](CC(C)C)C(=O)N5)nn3)CC2)cc1)c1ccccc1 [compound 1]
IC50 (TGFβ-treated A549 cells): 9500 nM
IC50 (human recombinant VEGFR2): 6 nM

TGFβ: recombinant human TGFβ (10 ng/mL) used to induce EMT and αvβ6 expression
αvβ3 integrin expression (αvβ3 integrin [1]; A549 cells exposed to TGFβ (10 ng/mL) 48 h, 72% without TGFβ): 32%
αvβ3 integrin expression (αvβ3 integrin [1]; H1975 cells, unaffected by TGFβ treatment): 98%
cell population expressing αvβ6 integrin receptor (αvβ6 integrin receptor; A549 cells exposed to TGFβ (10 ng/mL) for 48 h): 66%
cell population expressing αvβ6 integrin receptor (αvβ6 integrin receptor; H1975 cells exposed to TGFβ (10 ng/mL) for 48 h): 55%

c(AmpLRGDL) [compound 4]
inhibition of cell adhesion to fibronectin (in words) (H1975 cells): weak concentration-dependence
inhibition of cell adhesion to vitronectin (A549 cells [2]): not inhibited
2D flat surface migration of tumor spheroids [3]: did not inhibit cell growth and migration; also recorded: considerably weaker effect
2D growth of tumor spheroids (spheroid core) [3]: did not inhibit cell growth and migration; also recorded: very weak inhibition
α-SMA protein expression [4]: not able to affect
inhibition of 3D spheroid growth [5]: did not induce a significant reduction; also recorded: transient reduction
IC50 (αvβ6 integrin; isolated integrin): 8.3 ± 0.4 nM
selectivity IC50(αvβ3)/IC50(αvβ6) (αvβ6 integrin; isolated integrins): 255
IC50 (αvβ3 integrin [6]): 2120 ± 266 nM
level of inhibition of cell adhesion to fibronectin (A549 cells [7]; even TGFβ-treated, all concentrations tested): ≤ 50%
inhibition of cell adhesion to fibronectin (in words) (A549 cells [7]; untreated and TGFβ-treated, increasing concentrations): weak concentration dependence
